Test results taken from patent US9949983B2, “Fused benzazepines for treatment of stuttering” (PSYADON PHARMACEUTICALS, INC., priority 2013, dated 2018).
Like-named read-outs stand apart in the source and are kept apart here.

Assays:
[1] = cited from earlier work
stuttering = settings: cited from earlier work
D1 receptor = target: T1, D1 receptor (Rattus norvegicus, UniProt P18901); settings: rats, selective D1-agonist discriminative stimulus; cited from earlier work
T1 construct: In vivo studies on dopamine-agonist-induced behaviors; from tissue; host or cells: living rats (in vivo)
T1 sequence (P18901 whole entry): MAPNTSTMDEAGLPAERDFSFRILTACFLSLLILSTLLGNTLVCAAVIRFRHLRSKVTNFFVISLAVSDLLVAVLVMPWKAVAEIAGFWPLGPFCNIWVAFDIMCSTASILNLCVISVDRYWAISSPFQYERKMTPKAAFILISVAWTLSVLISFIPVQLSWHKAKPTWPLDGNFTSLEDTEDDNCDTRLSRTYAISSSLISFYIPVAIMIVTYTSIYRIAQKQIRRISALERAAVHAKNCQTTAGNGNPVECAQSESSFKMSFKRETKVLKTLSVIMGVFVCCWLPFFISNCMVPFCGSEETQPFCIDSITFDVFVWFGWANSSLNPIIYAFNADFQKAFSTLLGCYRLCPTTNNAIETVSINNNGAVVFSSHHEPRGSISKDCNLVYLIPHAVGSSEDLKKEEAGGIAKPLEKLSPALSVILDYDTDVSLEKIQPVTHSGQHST

[2] = Open-label clinical study of safety, tolerability and activity in adult patients with Tourette's Syndrome; assay type: in vivo, human; settings: adult TS patients, 50 mg/day Weeks 1-2, 100 mg/day Weeks 3-8
Description: A clinical program was carried out to test the safety, tolerability, and activity of ecopipam in adult patients with Tourette's Syndrome. A multicenter, open-label, nonrandomized study in 25 to 30 subjects was conducted to assess the activity and safety of ecopipam in subjects with TS. […] Assessment was performed at each visit. A follow-up visit was conducted via telephone at Week 10 to record any adverse events. Ecopipam was administered daily before bedtime at 50 mg/day for Week 1 and Week 2 and at 100 mg/day for Weeks 3-8. This treatment regimen is within the scope of the present invention; the compositions and various formulations described herein can be administered as described in this Example. The demographics of the study population were as follows: eighty three percent of the subjects were male (15 out of 18); fifteen were Caucasian, two were African-American, and one was an Asian/Pacific Islander. All subjects reported at least one adverse event (AE). […] These side effects are similar to those seen in other studies with ecopipam and were not unexpected.

D1/D5 receptors = settings: rat brain homogenates, at low concentrations; cited from earlier work
hD1/hD5 receptors = experiment: Binding to cloned human receptors
Description: (§1) Activation of D1 receptors by dopamine and similar agonists stimulates the production of cyclic AMP (cAMP) via activation of adenylate cyclase. […] To ensure that there was no species specificity to the receptor binding profile, ecopipam's potency and selectivity were evaluated using cloned human receptors. […] Positron emission tomography (PET) studies using radiolabeled ecopipam have been conducted in healthy volunteers (Karlsson et al., Psychopharmacol., 121:300-308, 1995).

D1 receptors = D1 receptors (Homo sapiens, UniProt P21728); experiment: In vitro cAMP second messenger studies (adenylate cyclase); assay type: biochemical
D1 receptors, sequence (P21728 whole entry): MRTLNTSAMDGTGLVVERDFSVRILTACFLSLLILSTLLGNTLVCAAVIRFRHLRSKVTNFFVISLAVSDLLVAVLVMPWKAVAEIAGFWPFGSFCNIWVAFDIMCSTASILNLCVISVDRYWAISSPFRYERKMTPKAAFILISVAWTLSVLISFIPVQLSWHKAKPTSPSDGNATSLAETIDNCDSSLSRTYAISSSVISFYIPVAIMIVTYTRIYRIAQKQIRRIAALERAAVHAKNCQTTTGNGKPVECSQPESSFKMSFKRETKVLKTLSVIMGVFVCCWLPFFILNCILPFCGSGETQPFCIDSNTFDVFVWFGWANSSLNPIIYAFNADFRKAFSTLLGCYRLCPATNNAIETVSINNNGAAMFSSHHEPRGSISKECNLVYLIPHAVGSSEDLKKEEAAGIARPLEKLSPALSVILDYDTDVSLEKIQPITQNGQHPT
Description: as §1

dopamine D1 receptors = dopamine D1 receptors (Homo sapiens, UniProt P21728); settings: radiolabeled ecopipam, healthy volunteers; cited from earlier work
dopamine D1 receptors, sequence (P21728 whole entry): as above

[3] = known D2 antagonists, literature reports

For `CN1CCc2cc(Cl)c(O)cc2[C@@H]2c3ccccc3CC[C@H]21` [Q=CH2, n=1, 7b(S):7a(R)(+), X=Cl, Y=OH, 6,7,7a,8,9,13b-hexahydro-3-chloro-2-hydroxy-7-methyl-5H-benzo[d]naphtho[2,1-b]azepine], the “CAR (MED)” value ([1]; po) is listed as >30 (po).

In the case of `COc1cc2c(cc1O)CCN(C)C1CCCc3ccccc3C21` (stereo not drawn) [Q=CH2, n=2, trans, X=HO, Y=CH3O, 3-hydroxy-2-methoxy-7-methyl-5,6,7,7a,8,9,10,14b-octahydro-benzo[d]benzo[3,4]cyclo-hepta[1,2-b]azepine], the “CAR (MED)” value ([1]; sc) is listed as 10 (sc).

In the case of `CN1CCc2cc(Cl)c(N)cc2C2c3ccccc3CCC21` (stereo not drawn) [Q=CH2, n=1, trans, X=Cl, Y=NH2, 6,7,7a,8,9,13b-hexahydro-2-amino-3-chloro-7-methyl-5H-benzo[d]naphtho[2,1-b]azepine], the “CAR (MED)” value ([1]; po) is given as 3 (po).

In the case of `CN1CCc2cc(Cl)c(O)cc2C2c3ccccc3CCC21` (stereo not drawn) [Q=CH2, n=1, trans, X=Cl, Y=OH, 6,7,7a,8,9,13b-hexahydro-3-chloro-2-hydroxy-7-methyl-5H-benzo[d]naphtho[2,1-b]azepine], the “CAR (MED)” value ([1]; po) is listed as 30 and the “CAR (MED)” value ([1]; sc) is listed as 0.3.

In the case of `COC(=O)C(c1ccccc1)C1CCCCN1` (stereo not shown) [methylphenidate], the “reported effect on stuttering” value (stuttering; D2-preferring dopamine agonist, literature report) is listed as “relieve stuttering”.

In the case of `COc1cc2c(cc1O)C1c3ccccc3CCC1N(C)CC2` (stereo not drawn) [Q=CH2, n=1, trans, X=CH3O, Y=OH, 6,7,7a,8,9,13b-hexahydro-2-hydroxy-3-methoxy-7-methyl-5H-benzo[d]naphtho[2,1-b]azepine], the “CAR (MED)” value ([1]; po) is given as 30 and the “CAR (MED)” value ([1]; sc) is given as 0.3-1.

In the case of `COc1cc2c(cc1O)C1c3ccccc3CCCC1N(C)CC2` (stereo not drawn) [Q=CH2, n=2, trans, X=CH3O, Y=OH, 2-hydroxy-3-methoxy-7-methyl-5,6,7,7a,8,9,10,14b-octahydro-benzo[d]benzo[3,4]cyclo-hepta[1,2-b]azepine], the “CAR (MED)” value ([1]; sc) is given as 10 (sc).

For `CN1CCc2cc(Cl)c(O)cc2[C@H]2c3ccccc3CC[C@@H]21` [Q=CH2, n=1, 7b(R): 7a(S)(−), X=Cl, Y=OH, 6,7,7a,8,9,13b-hexahydro-3-chloro-2-hydroxy-7-methyl-5H-benzo[d]naphtho[2,1-b]azepine], the “CAR (MED)” value ([1]; po) is given as 30 (po).

For `Cc1cc2c(s1)Nc1ccccc1N=C2N1CCN(C)CC1` [olanzapine], the “reported effect on stuttering” value (stuttering; [3]) is listed as “induce stuttering”.

For `CN1CCc2cc(Cl)c(O)cc2[C@H]2c3ccccc3CC[C@@H]21` [ecopipam, (−)-trans-6,7,7a,8,9,13b-hexahydro-3-chloro-2-hydroxy-N-methyl-5H-benzo [d]-naphtho-[2,1-b]azepine], the “action on dopamine-agonist-induced behaviors” value (D1 receptor) is given as “selective D1 antagonist”, the “patients reporting AEs rated as severe” value ([2]; 18 subjects) is given as “Four” and the “subjects reporting at least one adverse event” value ([2]; 18 subjects) is given as “All subjects”. For the same molecule, the “AEs rated as severe (kinds)” value [2] was “sedation, insomnia, decreased appetite, hypersensitivity, cold sweat, and feeling jittery”, the “AEs rated mild to moderate reported in more than three subjects” value [2] was “fatigue, insomnia, nausea, sedation, headache, restlessness, anxiety, muscle twitching, dysphoria, and sleeplessness” and the “changes in lab tests” value [2] was “none were of clinical significance”. For the same molecule, the “changes in vital signs” value [2] was “no clinically significant changes in vital signs”, the serious adverse events [2] was “no serious adverse events” and the “affinity for D1/D5 receptors” value (D1/D5 receptors) was “high affinity”. The “affinity for hD1/hD5 receptors” value (hD1/hD5 receptors) was “high affinity”, the “action on cAMP second messenger” value (D1 receptors) was “antagonist” and the “binding in human brain (PET)” value (dopamine D1 receptors) was “specific binding in the human brain”.

In the case of `CN1CC2c3ccccc3Oc3ccc(Cl)cc3C2C1` (stereo not shown) [asenapine], the “reported effect on stuttering” value (stuttering; [3]) is given as “induce stuttering”.

In the case of `Cc1nc2n(c(=O)c1CCN1CCC(c3noc4cc(F)ccc34)CC1)CCCC2` [risperidone], the “reported effect on stuttering” value (stuttering; [3]) is given as “induce stuttering”.
